Measured values as given in patent US8686023B2, “Salts of sunitinib” (Lek Pharmaceuticals D.D., priority 2008, dated 2014).

Solubility of sunitinib salts in water at 25° C.: 2000 µg/mL
Substance: sunitinib L-malate
